From patent publication US20220098646A1, “DETECTION METHOD OF PAN-RESISTANT K. PNEUMONIAE, SCREENING METHOD OF ANTIMICROBIAL AGENTS, AND RECORDING MEDIA AND DATABASE” (TEIKYO UNIVERSITY, priority 2019, published 2022) come the findings set out here.

Values after ≈ are worked out from the molar mass of the structure shown. Bounds are passed on as bounds.

The subject of one assay is K. pneumoniae TK1401. As to the kind of experiment: Antimicrobial susceptibility testing, broth microdilution method. Particulars: K. pneumoniae isolate TK1401; broth microdilution method (footnote b). The assay is classed as cell-based, Klebsiella pneumoniae. The method, then:
(§1) Testing was performed using a MicroScan WalkAway apparatus (Beckman Coulter, Brea, Calif., USA). The minimal inhibitory concentration (MIC) of colistin was confirmed using the Etest (bioMérieux, Marcy l'Etoile, France) and the broth microdilution method. Antimicrobial susceptibility was defined according to breakpoints listed in the Clinical and Laboratory Standards Institute (CLSI) guidelines (M100-S24).
Colistin showed a Minimum inhibitory concentration of 64 µg/mL.
Polymyxin B returned a Minimum inhibitory concentration of 64 µg/mL.

Still in this assay, the particulars now being: Klebsiella pneumoniae, TK1401, read-out: Minimum inhibitory concentration.
With `CN(C)c1cc(NC(=O)CNC(C)(C)C)c(O)c2c1C[C@H]1C[C@H]3[C@H](N(C)C)C(O)=C(C(N)=O)C(=O)[C@@]3(O)C(O)=C1C2=O` [Tigecycline], the MIC was 16 µg/mL (≈ 27.3 µM).

The same assay, now with this note: Klebsiella pneumoniae; K. pneumoniae isolate TK1401; broth microdilution method (footnote b); read-out: Minimum inhibitory concentration.
Regarding `NCC[C@H](O)C(=O)N[C@@H]1C[C@H](N)[C@@H](O[C@H]2O[C@H](CN)CC[C@H]2N)[C@H](O)[C@H]1O[C@H]1O[C@H](CO)[C@@H](O)[C@H](N)[C@H]1O` [Arbekacin], the MIC is over 256 µg/mL.
As for `O=C(N[C@H](CO)[C@H](O)c1ccc([N+](=O)[O-])cc1)C(Cl)Cl` [Chloramphenicol], the MIC is over 256 µg/mL.
Turning to `C[C@@H]1O[C@@H]1P(=O)(O)O` [Fosfomycin], the MIC was over 256 µg/mL.
The same measure, in the same setting: the figure for `CN(C)c1ccc(O)c2c1C[C@H]1C[C@H]3[C@H](N(C)C)C(O)=C(C(N)=O)C(=O)[C@@]3(O)C(O)=C1C2=O` [Minocycline] is 256 µg/mL (≈ 560 µM).

The next assay has as its system K. pneumoniae TK1401. The assay can be described thus: Antimicrobial susceptibility testing, MicroScan WalkAway apparatus. Particulars: K. pneumoniae isolate TK1401; MicroScan WalkAway; CLSI M100-S24 breakpoints. It counts as cell-based, Klebsiella pneumoniae. How it is done:
as §1
In the case of `CO[C@@]1(NC(=O)CSCC#N)C(=O)N2C(C(=O)O)=C(CSc3nnnn3C)CS[C@@H]21` [Cefmerazole], the Minimum inhibitory concentration is over 32 µg/mL.
`CO/N=C(\C(=O)N[C@@H]1C(=O)N2C(C(=O)O)=C(COC(C)=O)CS[C@H]12)c1csc(N)n1` [Cefotaxim]: the Minimum inhibitory concentration was over 2 µg/mL.
The compound Gentamicin yielded a Minimum inhibitory concentration of over 8 µg/mL.

Still in this assay, the particulars now being: Klebsiella pneumoniae; K. pneumoniae isolate TK1401; MicroScan WalkAway; CLSI M100-S24 breakpoints; read-out: Minimum inhibitory concentration.
As for `NCC[C@H](O)C(=O)N[C@@H]1C[C@H](N)[C@@H](O[C@H]2O[C@H](CN)[C@@H](O)[C@H](O)[C@H]2O)[C@H](O)[C@H]1O[C@H]1O[C@H](CO)[C@@H](O)[C@H](N)[C@H]1O` [Amikacin], the MIC is over 32 µg/mL.
Same read-out and setting: for `CC1(C)S[C@@H]2[C@H](NC(=O)[C@H](N)c3ccc(O)cc3)C(=O)N2[C@H]1C(=O)O` [Amoxicillin] the value was over 16 µg/mL; for `CC1(C)S[C@@H]2[C@H](NC(=O)[C@H](N)c3ccccc3)C(=O)N2[C@H]1C(=O)O` [Ampicillin], over 16 µg/mL.
As for `N[C@@H](C(=O)N[C@@H]1C(=O)N2C(C(=O)O)=C(Cl)CS[C@H]12)c1ccccc1` [Cefaclor], the MIC was over 16 µg/mL.
`Cc1nnc(SCC2=C(C(=O)O)N3C(=O)[C@@H](NC(=O)Cn4cnnn4)[C@H]3SC2)s1` [Cefazolin]: the MIC is over 16 µg/mL.
On the same count and under the same terms, the figure for `C=CC1=C(C(=O)O)N2C(=O)[C@@H](NC(=O)/C(=N\O)c3csc(N)n3)[C@H]2SC1` [Cefdinir] is over 2 µg/mL.
Turning to `CO/N=C(\C(=O)N[C@@H]1C(=O)N2C(C(=O)[O-])=C(C[N+]3(C)CCCC3)CS[C@H]12)c1csc(N)n1` [Cefepime], the MIC is over 2 µg/mL.
Turning to `CN(C)CCn1nnnc1SCC1=C(C(=O)O)N2C(=O)[C@@H](NC(=O)Cc3csc(N)n3)[C@H]2SC1` [Cefotiam], the MIC is over 16 µg/mL.
Same read-out and setting: the figure for `CO/N=C(\C(=O)N[C@@H]1C(=O)N2C(C(=O)[O-])=C(C[n+]3ccn4ncccc43)CS[C@H]12)c1nsc(N)n1` [Cefozopran] is over 16 µg/mL; for `COCC1=C(C(=O)O)N2C(=O)[C@@H](NC(=O)/C(=N\OC)c3csc(N)n3)[C@H]2SC1` [Cefpodoxime] it is over 4 µg/mL; for `CC(C)(O/N=C(\C(=O)N[C@@H]1C(=O)N2C(C(=O)[O-])=C(C[n+]3ccccc3)CS[C@H]12)c1csc(N)n1)C(=O)O` [Ceftazidime] it is over 16 µg/mL.
`CO/N=C(\C(=O)N[C@@H]1C(=O)N2C(C(=O)O)=C(CSc3nc(=O)c(=O)[nH]n3C)CS[C@H]12)c1csc(N)n1` [Ceftriaxone]: the MIC was over 16 µg/mL.
For `C[C@@H](O)[C@H]1C(=O)N2C(C(=O)O)=C(S[C@@H]3CN[C@H](CNS(N)(=O)=O)C3)[C@H](C)[C@H]12` [Doripenem], the MIC was over 8 µg/mL.
As for `CO[C@@]1(NC(=O)CSC(F)F)C(=O)N2C(C(=O)O)=C(CSc3nnnn3CCO)CO[C@@H]21` [Flomoxef], the MIC was over 32 µg/mL.
In the case of `C[C@@H](O)[C@H]1C(=O)N2C(C(=O)O)=C(SCCN=CN)C[C@H]12` [Imipenem], the MIC is over 8 µg/mL.
For `C[C@H]1COc2c(N3CCN(C)CC3)c(F)cc3c(=O)c(C(=O)O)cn1c23` [Levofloxacin], the MIC was over 4 µg/mL.
As to `C[C@@H](O)[C@H]1C(=O)N2C(C(=O)O)=C(S[C@@H]3CN[C@H](C(=O)N(C)C)C3)[C@H](C)[C@H]12` [Meropenem], the MIC was over 8 µg/mL.
With `CCN1CCN(C(=O)N[C@@H](C(=O)N[C@@H]2C(=O)N3[C@@H]2SC(C)(C)[C@@H]3C(=O)O)c2ccccc2)C(=O)C1=O` [Piperacillin], the MIC was over 64 µg/mL.
As to `NC[C@H]1O[C@H](O[C@H]2[C@H](O)[C@@H](O[C@H]3O[C@H](CO)[C@@H](O)[C@H](N)[C@H]3O)[C@H](N)C[C@@H]2N)[C@H](N)C[C@@H]1O` [Tobramycin], the MIC was over 8 µg/mL.

Still in this assay, the particulars now being: breakpoints of CLSI guidelines M100-S24.
As to `C[C@@H]1O[C@@H]1P(=O)(O)O` [Fosfomycin], the “Antimicrobial susceptibility of the isolate (in words)” value is recorded as “not susceptible”.
